Experimental findings from patent publication US10774046B2, “Inhibitors for the treatment of cancer and related methods” (UNIVERSITY OF LOUISVILLE RESEARCH FOUNDATION, INC., priority 2017, dated 2020) are described below.

Experiment [1] has as its target T1, human recombinant PFKFB4 (Homo sapiens, UniProt Q16877). Kind of experiment: fructose-6-phosphate kinase activity of recombinant PFKFB4 (in vitro kinase assay). Format: biochemical. Here is the method:
(§1) The fructose-6-phosphate kinase activity of human recombinant PFKFB4 in the presence of DMSO±indicated 5MPN concentrations was assayed as previously described. The activity of 5MPN against 97 kinases was examined using a commercially available active-site dependent competition binding assay core service (KINOMEscanEDGE) that quantifies the capacity of test agents to compete with an immobilized, active-site directed ligand using a DNA-tagged kinase and immobilized ligand and compound. For example, enzyme inhibition was studied using an ADP-Glo assay. The effect of MPN-2 on the activity of recombinant human PFKFB4 enzyme was examined in an ADP-Glo assay (Promega), which measures ADP formed from a kinase reaction. ADP is converted into ATP, which is converted into light by a luciferase. PFKFB4 protein was exposed to MPN-2 at indicated concentrations in the presence of ATP and fructose-6-phosphate and following manufacturer's instructions, ADP-Glo and kinase detections reagents were added. The data are shown as the decrease in luminescence caused by MPN-2 relative to DMSO.

In experiment [2] the test system is H460 cells. Description: intracellular ATP measurement. Format: cell-based, human. Here is the method: H460 cells were exposed to the indicated concentrations of MPN-2 and ATP production was examined. Cells were lysed and intracellular ATP determined as described previously. For example, cells were washed (while still adherent) with cold PBS 1×, lysed with Passive Lysis Buffer (1×; Molecular Probes, Invitrogen) added directly to the plates, and immediately harvested by scraping. The lysates were flash frozen (to −80° C.) and thawed (to 37° C.) once to accomplish complete lysis and then centrifuged (at 4° C.) for 30 seconds to clear the lysates. Intracellular ATP levels were determined using a bioluminescence assay (Molecular Probes), utilizing recombinant firefly luciferase and its substrate, D-luciferin. The luminescence was read in a TD-20/20 luminometer (Turner Designs) at 560 nm. The ATP values were calculated using an ATP standard curve. The protein concentrations of the lysates were estimated using the BCA assay (Pierce Biotechnology) and ATP was expressed as pmol/μg protein. All data are expressed as the mean±SD of three experiments. Statistical significance was assessed by the two-sample t test (independent variable).

Experiment [3] relates to normal human bronchial epithelial (NHBE) cells. Description: cell growth of normal cells, live cell count. Conditions: live cells at 48 hours. It is filed as cell-based. An excerpt: H460, H1299, H441, H522 and A549 non-small cell lung cancer (NSCLC), MDA-MB-231 (breast), LNCaP (prostatic) and HCT116 (colon) adenocarcinoma and Lewis lung carcinoma (LLC) cell lines were obtained from ATCC and used within 6 months of acquisition. PFKFB4^−/− ear pinna fibroblasts isolated from TamCre/loxP/PFKFB4^−/− mice were immortalized as described previously (Chesney J et al. Fructose-2,6-bisphosphate synthesis by 6-phosphofructo-2-kinase/fructose-2,6-bisphosphatase 4 (PFKFB4) is required for the glycolytic response to hypoxia and tumor growth. Oncotarget 2014 Aug. 30; 5(16):6670-86). Normal bronchial epithelial cells (NHBE) were obtained from Lonza and NHBE cells expressing telomerase, SV40 large T antigen and activated Ras (hT/LT/Ras) were a gift from Dr. B. J. Rollins, Dana Farber Cancer Institute. All cell lines were tested and found negative for mycoplasma (PCR Mycoplasma Detection Kit, ABM). Cell lines were grown in DMEM (A549, LNCaP, MDA-MB-231, LLC and PFKFB4^−/−), RPMI 1640 (H460, H1299, H441, H522) and McCoy's 5A media (HCT116) (all from Invitrogen) containing 10% fetal calf serum (Hyclone). […]
Cells were incubated in 20% trypan blue (Sigma) for 5 minutes. Cells excluding trypan blue were counted using a standard hemocytometer (Hausser Scientific) to determine total numbers of viable cells. Data are expressed as mean±SD of three experiments.

The subject of experiment [4] is H460 cells. Description: apoptosis by flow cytometry (annexin V / propidium iodide). Format: cell-based, human. The settings on record: H460, 10 μM 5MPN. Here is the method:
(§2) To measure apoptosis, cells were stained with annexin V and propidium iodide and examined as previously described. For example, H460 cells were exposed to increasing concentrations of the PFKFB4 inhibitor (MPN-2), the PFKFB3 inhibitor PFK15 (Tocris) or both and viable cells were counted at 24, 48 and 72 hours. DMSO used as vehicle. For cell cycle experiments, cells were detached, washed with cold PBS and fixed in 70% ethanol (4° C., 30 minutes). The cells then were pelleted by centrifugation, resuspended in PBS containing PI and RNase A, incubated at 37° C. in the dark for 30 minutes and analyzed by flow cytometry (BD FACSCalibur). Data were analyzed using FlowJo software (TREE STAR Inc.). Results were calculated as the mean±SD of three experiments. The effects (Fa values) of the series of concentrations of MPN-2 and PFK-15 were examined individually and in combination at a constant ratio of 1:1.
On the technique in general: In flow cytometry, cells or beads pass a laser one at a time.

The test system of the next experiment is LLC cells. Kind of experiment: cell cycle analysis by flow cytometry. It is filed as cell-based, mouse. Conditions: LLC cells in vitro, 10 μM 5MPN. Here is the method:
as §2

The target of experiment [5] is T1, human recombinant PFKFB4. Kind of experiment: ADP-Glo kinase assay. It is filed as biochemical. As to the method:
as §1
Method: The efficacy of Formula (VIII) in inhibition of the kinase activity of the PFKFB4 enzyme was examined by exposing recombinant human PFKFB4 protein to Formula (VIII) in the ADP-Glo kinase assay (Promega) which measures ADP formed through a kinase reaction. Briefly, recombinant protein, ATP, substrate and Formula (VIII) were incubated together for the kinase reaction followed by the addition of ADP-Glo reagent, used to terminate the kinase reaction. Lastly, a kinase detection reagent was added to convert the newly formed ADP to ATP which was measured by a luciferase reaction. Data are shown in FIG. 10 as the decrease in luminescence caused by Formula (VIII) relative to DMSO.
Method: The efficacy of FB4-32 and FB4-35 in inhibition of the kinase activity of the PFKFB4 enzyme was examined by exposing recombinant human PFKFB4 protein to FB4-32 and FB4-35 in the ADP-Glo kinase assay (Promega) which measures ADP formed through a kinase reaction. Briefly, recombinant protein, ATP, substrate and FB4-32 or FB4-35 were incubated together for the kinase reaction followed by the addition of ADP-Glo reagent to terminate the kinase reaction. Last, a kinase detection reagent was added to convert the newly formed ADP to ATP which was measured by a luciferase reaction. Data are shown as the decrease in luminescence caused by FB4-32 and FB4-35 relative to DMSO.
In general terms: ADP-Glo first removes unused ATP, then detects ADP through luciferase.

T1 sequence (Q16877 whole entry): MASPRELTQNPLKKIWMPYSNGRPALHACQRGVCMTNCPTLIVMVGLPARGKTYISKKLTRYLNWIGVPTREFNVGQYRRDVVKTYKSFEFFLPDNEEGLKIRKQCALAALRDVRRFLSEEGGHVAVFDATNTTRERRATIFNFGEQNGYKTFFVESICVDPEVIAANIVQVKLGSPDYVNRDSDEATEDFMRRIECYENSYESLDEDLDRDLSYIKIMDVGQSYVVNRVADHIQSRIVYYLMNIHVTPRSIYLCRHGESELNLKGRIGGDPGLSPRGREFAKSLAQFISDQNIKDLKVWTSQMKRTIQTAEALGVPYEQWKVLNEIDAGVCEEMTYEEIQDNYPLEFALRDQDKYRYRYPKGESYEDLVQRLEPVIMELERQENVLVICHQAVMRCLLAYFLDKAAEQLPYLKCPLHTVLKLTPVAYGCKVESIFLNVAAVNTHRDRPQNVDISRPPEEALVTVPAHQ

Consider `COc1cccc2c(NCCCCCO[N+](=O)[O-])ccnc12` [5MPN, 5-[(8-methoxyquinolin-4-yl)amino]pentyl nitrate], for which the “type of inhibition (Lineweaver-Burk analyses)” value at human recombinant PFKFB4 [1] (as a function of F6P concentration, FIG. 1D) was “competitive inhibitor of the F6P binding site”. Further, the PFKFB4 activity entry on human recombinant PFKFB4 [1] (kinase activity of recombinant PFKFB4, FIG. 1C) is on record as “inhibited PFKFB4 activity”. Moreover, the ATP result in the experiment with H460 cells [2] (H460, 10 μM 5MPN, 6-72 hours) is on record as “reduced”. In experiment [3], the “cell growth of normal cells” value is reported as “virtually unaffected”. Also, in the experiment with H460 cells [4], the apoptotic cells result was “increase in apoptotic cells”. Also, the cell cycle distribution result with LLC cells was “G1 arrest”.
For the compound `COc1cccc2c(NCCCCCNC(=O)C(F)(F)F)ccnc12` [Formula (VIII), 2,2,2-trifluoro-N-(5-((8-methoxyquinolin-4-yl)amino)pentyl)acetamide], the “kinase activity of the PFKFB4 enzyme (luminescence relative to DMSO)” value at human recombinant PFKFB4 [5] is given as “inhibited”.
Turning to “5-[(8-methoxy-2-methylquinolin-1-ium-4-yl)amino]pentyl nitrate [MPN-2]”, on human recombinant PFKFB4 [5], the “kinase activity of the PFKFB4 enzyme (luminescence relative to DMSO)” value is given as “inhibited”. Besides, the ATP production entry in the experiment on H460 cells [2] (H460, indicated concentrations of MPN-2, 48 hours) is “decreased”.
